Assay results reported in US6699682B2, “Assay for inhibitors of fatty-acid amide hydrolase” (The Scripps Research Institute, priority 1995, dated 2004).

Tested on: rats
Assay: effect on spontaneous behavior of rats after ip injection (induction of sleep)
Type: in vivo, rat
Description: Synthetic cis-9,10-octadecenoamide was injected (ip) into rats in order to test its effect on spontaneous behavior at different doses: 1 (n=2), 2 (n=2), 5 (n=7), 10 (n=10), 20 (n=2), and 50 (n=2) mg, where n = number of rats tested. […] However, at a threshold of 5 mg and above there was a marked effect consisting of an induction of long-lasting motor quiescence associated with eyes closed, sedated behavior characteristic of normal sleep. Also as with normal sleep, the rats still responded to auditory stimuli with orienting reflex and sustained attention toward the source of stimulation. In addition, motor behavior was impaired. The latency to behavioral sedation following administration was about 4 minutes and subjects were normally active again after 1 hour (5 mg), 2 hour (10 mg), or 2.5 hour (20 mg and 50 mg).
We have compared cis-9,10-octadecenoamide to vehicle and the synthetic analogs listed in FIG. 1 to estimate the structural specificity of its sleep-inducing potential. […] More particularly, male Sprague-Dawley rats (300 g at the time of surgery) were implanted under halothane anesthesia (2-3%) with a standard set of electrodes for sleep recordings. This included two screw electrodes placed in the parietal bone over the hippocampus to record the subjects electroencephalogram (EEG) and two wire electrodes inserted in the neck musculature to record postural tone through electromyographic activity (EMG). Rats were housed individually with at libitum access to food and water. The dark-light cycle was controlled (12:12, lights on a 10:00 p.m.). One week after the surgery, rats were habituated to the recording conditions for at least three days. Upon the completion of the habituation period, rats received 2 milliliter (ip) of either: vehicle (5% ethanol/saline solution), cis-9,10-octadecenoamide (10 mg), or oleic acid (10 mg). […] Sleep recordings were visually scored and four stages were determined: wakefulness, slow-wave-sleep 1 (SWS1), slow-wave-sleep 2 (SWS2), and rapid eye movement (REM) sleep.

Compound: CCCCCCCC/C=C\CCCCCCCC(N)=O [cis-9,10-octadecenoamide, Cis-9,10-octadecenoamide]
- duration of the biological (sleep-inducing) effect (10 mg per rat): two hours
- threshold dose for induction of long-lasting motor quiescence with eyes closed, sedated behavior (rats, ip): 5 mg
- effect on spontaneous behavior (rats, ip, lower doses 1 and 2 mg): no overt effect on spontaneous behavior
